Where a name gives a salt, the structure may show the parent alone.
Tests used:
[1] = system: macrophage activation; experiment: Macrophage activation, copper(I)-targeting agents; type: cell-based
[2] = system: U937 cells; experiment: Cell viability assay (CellTiter-Blue) on lymphoma cell line U937; type: cell-based; conditions: Homo sapiens, U-937, 72 h treatment
Experimental: Cell culture. U-937 cells were grown in an incubator equilibrated at 37° C. with 5% CO2, grown to confluence and split with Trypsin/EDTA (Gibco, […]01) once or twice a week according to confluence. U-937 (ATCC, HTB-132) were cultured in RPMI 1640 GLUTAMAX (ThermoFisher Scientific, 61870044) supplemented with 10% Fetal Bovine Serum (FBS, Gibco, 10270-106) and Penicillin-Streptomycin mixture (BioWhittaker/Lonza, DE17-602E). […] Peripheral blood samples were collected from distinct healthy donors (Etablissement Français du Sang). Pan monocytes were isolated by negative magnetic sorting using microbeads according to the manufacturer's instructions (Miltenyi Biotec, 130-096-537), and cultured in RPMI 1640 supplemented with glutamine (Thermo Fisher Scientific, 61870010), 10% fetal bovine serum and exposed to granulocyte-macrophage colony-stimulating factor (GM-CSF, Miltenyi Biotec, 130-093-866, 100 ng/mL) to induce differentiation into macrophages (MDM). […] Cell viability assay (IC50). Cell viability assay was carried out by plating 1000 cells/well in 96-well plates. Cells were treated for 72 h in a range between to 25 nM and […] using serial dilutions. The inventors followed the manufacturer's protocol. In brief, CellTiter-Blue® reagent (G8081, Promega) was added after 72 h treatment and cells were incubated for 3 h before recording fluorescence intensities (λex. 560/20 nm; λem. 590/10 nm) using a Perkin Elmer Wallac 1420 Victor2 Microplate Reader.

[3] = system: activated macrophages (act. MDM), CD86 activation marker; experiment: CD86 macrophage activation marker by flow cytometry in LPS/IFNγ-activated monocyte-derived macrophages (Example 4); type: cell-based, human; conditions: LCCs at 10 μM, 24 h co-treatment; several values per compound
Experimental: Cell culture. U-937 cells were grown in an incubator equilibrated at 37° C. with 5% CO2, grown to confluence and split with Trypsin/EDTA (Gibco, […]01) once or twice a week according to confluence. U-937 (ATCC, HTB-132) were cultured in RPMI 1640 GLUTAMAX (ThermoFisher Scientific, 61870044) supplemented with 10% Fetal Bovine Serum (FBS, Gibco, 10270-106) and Penicillin-Streptomycin mixture (BioWhittaker/Lonza, DE17-602E). […] Peripheral blood samples were collected from distinct healthy donors (Etablissement Français du Sang). Pan monocytes were isolated by negative magnetic sorting using microbeads according to the manufacturer's instructions (Miltenyi Biotec, 130-096-537), and cultured in RPMI 1640 supplemented with glutamine (Thermo Fisher Scientific, 61870010), 10% fetal bovine serum and exposed to granulocyte-macrophage colony-stimulating factor (GM-CSF, Miltenyi Biotec, 130-093-866, 100 ng/mL) to induce differentiation into macrophages (MDM). […] Flow cytometry. Cells were washed with ice-cold 1×PBS, incubated with Fc block (Human TruStain FcX, Biolegend, 422302, 1/20) for 15 min, incubated with antibodies for 20 min at 4° C. and washed before analysis using a BD LSRFortessa X-20. Macrophages were analyzed with an antibody panel consisting of antibodies against the following cell surface proteins: CD44, CD80, CD86 and TfR1. The data were analyzed with FlowJo software v. 10.0.00003. […]

[4] = system: HMLER CD44^high/CD24^low; experiment: Cell viability assay (CellTiter-Blue) on breast cancer stem cell model HMLER CD44high/CD24low; type: cell-based, human; conditions: for IC50: Homo sapiens, cell viability, 72 h treatment, read-out: IC50 against HMLER CD44^high/CD24^low
Experimental: Cell viability assay (IC50). Cell viability assay was carried out by plating 1000 cells/well in 96-well plates. Cells were treated for 72 h in a range between to 25 nM and […] using serial dilutions. The inventors followed the manufacturer's protocol. In brief, CellTiter-Blue® reagent (G8081, Promega) was added after 72 h treatment and cells were incubated for 3 h before recording fluorescence intensities (λex. 560/20 nm; λem. 590/10 nm) using a Perkin Elmer Wallac 1420 Victor2 Microplate Reader.
Cell culture. MCF7 (ATCC) cells, DU-145 (ATCC) cells and FC1245 cells were cultured in Dulbecco's Modified Eagle Medium GlutaMAX (DMEM, ThermoFisher Scientific, 61965059) supplemented with 10% Fetal Bovine Serum (FBS, Gibco, 10270-106) and Penicillin-Streptomycin mixture (BioWhittaker/Lonza, DE17-602E) unless stated otherwise. Primary lung circulating tumor cells (Celprogen, 36107-34CTC, Lot 219411) were grown using stem cell complete media (Celprogen, M36102-29PS) until the third passage. Circulating cancer cells were grown in stem cell ECM T75-flasks (Celprogen, E36102-29-T75) and ECM 6-well plates (Celprogen, E36102-29-6Well). HMLER cells ([…]) naturally repressing E-cadherin, obtained from human mammary epithelial cells infected with a retrovirus carrying hTERT, SV40 and the oncogenic allele H-rasV12, and HMLER CD44 and TFRC ko clones were cultured in DMEM/F12 (Thermo Fisher Scientific, 31331093) supplemented with 10% FBS (Thermo Fisher Scientific, 10270106), 10 μg/mL insulin (Sigma-Aldrich, 10516), 0.5 μg/mL hydrocortisone (Sigma-Aldrich, H0888) and 0.5 μg/mL puromycin (Life Technologies, A11138-02), unless stated otherwise. HMLER CD44^high cells were also supplemented with 10 ng/mL EGF (Miltenyi Biotech, 130-097-750).

SMILES | IC50 [2] [µM] | further results
[NH4+].[NH4+].[SH-].[SH-].[S]=[Mo]=[S] [ATTM] |  | efficacy on macrophage activation [1]: lack of efficacy
N=C1NCCCCCCCCNC(=N)NC(=N)NCCCCCCCCNC(=N)N1 [Coronaformin-8,8] | 3 | 
N=C1NCCCCCCCCCCNC(=N)NC(=N)NCCCCCCCCCCNC(=N)N1 [Coronaformin-10,10] | 1 | 
N=C1NCCCCCCCCCCCCNC(=N)NC(=N)NCCCCCCCCCCCCNC(=N)N1 [Coronaformin-12,12] | 0.5 | 
CC(C)(S)[C@@H](N)C(=O)O [D-Pen] |  | efficacy on macrophage activation [1]: lack of efficacy
CCCNC(=N)NC(=N)NCCCCCCCCNC(=N)NC(=N)NCCC [LCC-8,3] | 2 | 
CN(CCCCCCCCN(C)C(=N)NC(=N)N)C(=N)NC(=N)N [LCC-8Me] | 150 | Effect on CD86 macrophage activation marker (Flow cytometry) (% of activation marker compared to its level in activated macrophages) [3]: 89%
CCNC(=N)NC(=N)NCCCCCCCCCCNC(=N)NC(=N)NCC [LCC-10,2] | 1 | 
CCCNC(=N)NC(=N)NCCCCCCCCCCNC(=N)NC(=N)NCCC [LCC-10,3] | 0.6 | Effect on CD86 macrophage activation marker (Flow cytometry) (% of activation marker compared to its level in activated macrophages) [3]: 22%
N=C(N)NC(=N)NCCCCCCCCCCNC(=N)NC(=N)N [LCC-10] | 20 | improved IC50 compared with metformin ([4]; HMLER CD44high/CD24low): about 400 fold; IC50 [4]: 58 µM
CN(CCCCCCCCCCCCN(C)C(=N)NC(=N)N)C(=N)NC(=N)N [LCC-12Me] | 6 | 
CN(C)C(=N)NC(=N)N [Metformin, 1,1-dimethylbiguanid hydrochloride, reference compound] | 10000 | IC50 [4]: 22600 µM
